Measured values from patent US20230059107A1, “STABLE TOPICAL COMPOSITIONS OF FENOLDOPAM” (TARO PHARMACEUTICAL INDUSTRIES LTD., priority 2019, published 2023).
Read-outs that look alike come from different tables or passages of the source. Marks after values point to notes of the source that are not given here.

Assays:
[1] = tested on: psoriatic xenotransplants (normal human skin grafted, psoriatic patient T-cell injected); experiment: Human skin xenotransplant model of psoriasis in beige-SCID mice: histological evaluation and epidermal thickness; assay type: in vivo; conditions: for Mean epidermal thickness: mean of the group
Protocol: The efficacy of the topical stable Fenoldopam compositions developed according to the current disclosure for the treatment of psoriasis is evaluated in a human skin xenotransplant model in mice. Human skin xenotransplant models are optimally suited for performing preclinical assays that explore novel anti-psoriatic agents/treatment strategies before initiating clinical trials. The purpose of this study is to evaluate the effectiveness of Fenoldopam mesylate formulations on the histological parameters of psoriasis in the human T-cell-driven model of psoriasis.
The patients included in the study have classic plaque psoriasis, and were not treated for the disease. Normal skin from one healthy volunteer is obtained for grafting.
Healthy human skin pieces with a width of 0.4 mm and surface area of 1.5×1.5 cm are provided from residual skin of routine plastic surgery procedures from the Plastic Surgery Department of the Rambam Health Care Campus, Haifa, Israel. In addition, 20 mL blood samples were taken from the psoriatic patients.
The normal healthy human donor skin is transplanted onto the Beige-severe combined immuno-deficient mice (SCID) (weight ˜20 g).
The mice are divided into several treatment groups. Mice of each group receive activated allogeneic T-cells expressing high levels of NK cells receptors from the psoriatic donor.
Peripheral Blood Mononuclear Cells (PBMCs) from the psoriatic patients' blood are isolated and cultured in the presence of a high dose of IL-2 (100 U/mL of media) for 14 days to activate allogeneic T-cells expressing high levels of NK cells receptors.
Four weeks following the engraftment, each mouse is injected with 1×10^7 activated allogeneic IL2-enriched PBMCS from psoriatic patients (1×10^7 cells injected/mouse). Cells from different psoriasis patients are distributed equally between treatment groups. Each patient is represented in each treatment group.
Two weeks following the injections, the mice are divided randomly and treated daily for 14 constitutive days with the different topical formulations.
(§1) Fourteen days after starting the treatment (four weeks following the injections), blood samples are taken and the skin is harvested. The grafts are analyzed histologically and immunohistochemically for psoriatic parameters.
In this model, a psoriasis-like phenotype is induced in normal human skin grafted onto beige-severe combined immunodeficient mice by intradermal injection of natural killer/T-cells derived from psoriatic patients (Gilhar et al., J Invest Dermatol. 2002 Aug;119(2):384-91.).
The purpose of these further experiments was to verify the therapeutic effect of FMT and compare the therapeutic effects of two doses (1% versus 2%) of two different formulations (cream versus gel).
In order to address the aim of the experiment, the psoriatic humanized mice were established. 10 psoriatic patients were recruited (seven males and three females), mean age 44 years, ranging from 22 to 61 years for testing. All patients had classic plaque psoriasis. None of the patients had been treated. Normal skin from one healthy volunteer was obtained for grafting.
The experiment comprised 72 mice divided into eight groups (Table 10). All of the mice were injected with T-cells expressing NK receptors obtained from psoriatic patients according to the protocol. Thereafter, the mice were separated as follows: Group 1: non-treated control; Group 2: dexamethasone; Group 3: FMT Gel 1%; Group 4: FMT Gel 2%; Group 5: Gel (vehicle); Group 6: FMT Cream 1%; Group 7: FMT Cream 2%; and Group 8: Cream (vehicle). All groups were treated from day 14 until day 28 post T-cells injection.

[2] = tested on: inflammatory markers of the psoriatic xenotransplants (Ki-67, HLA-DR, CD8, CD4, IL-17); experiment: Human skin xenotransplant model of psoriasis: immunohistochemical staining for Ki-67, HLA-DR, CD8, CD4 and IL-17; assay type: in vivo
Protocol: as §1
We then stained skin sections derived from the various human xenotransplants for Ki-67 and HLA-DR: the first, a marker of cellular hyperproliferation and the second, for immune stimulation. Strong expression of Ki-67 was observed along the lower part of the epidermis in all control and vehicle groups and in the non-responders FMT xenotransplants. […] However, weak or absent HLA-DR expression was observed along the epidermis in the responders transplants treated with FMT.
Negative expression—no staining Mild—minor level of cell infiltrates of positive cells along the dermis Dense—intense level of cell infiltrates of positive cells along the dermis
To characterize the inflammatory infiltrate in the skin, we examined the expression of CD8, CD4 and IL-17+cells, which mark T lymphocytes (FIG. 1 and Tables 15, 16).
Negative expression—no staining Mild—minor level of cell infiltrates of positive cells along the dermis Dense—intense level of cell infiltrates of CD8+, CD4+IL17+positive cells along the dermis

[3] = cited from earlier work
[4] = topical bid, day 14 until day 28 post T-cells injection
[5] = intense level of cell infiltrates
[6] = minor level of cell infiltrates

SMILES: C[C@@H]1C[C@H]2[C@@H]3CCC4=CC(=O)C=C[C@]4(C)[C@@]3(F)[C@@H](O)C[C@]2(C)[C@@]1(O)C(=O)CO [Dexamethasone]
- Epidermal thickness ([1]; Donor 1): 338 μm
- Epidermal thickness ([1]; Donor 2): 280 μm
- Epidermal thickness ([1]; Donor 3): 290 μm
- Epidermal thickness ([1]; Donor 4): 300 μm
- Epidermal thickness ([1]; Donor 5): 305 μm
- Epidermal thickness ([1]; Donor 6): 260 μm
- Mean epidermal thickness ([1]; listed as Dexa): 295* μm
- Mean epidermal thickness ([1]; listed as dexamethasone): 295 ±26 μm
- Complete Recovery (grafts/total) [1, 4]: 5/6
- Partial Recovery (grafts/total) [1, 4]: 1/6
- Psoriatic Features (grafts/total) [1, 4]: 0/6
- Epidermal HLA-DR Expression: Diffuse (grafts/total) ([2]; Diffuse—more than 50% of the epidermal area): 0/6
- Epidermal HLA-DR Expression: Focal (grafts/total) ([2]; Focal—less than 50% of the epidermal area): 1/6
- CD4 Expression: Dense ([2]; Non responders grafts): 0/6
- CD4 Expression: Negative/Mild ([2]; Non responders grafts): 0/6
- CD8 Expression: Dense ([2]; Non responders grafts): 0/6
- CD8 Expression: Negative/Mild ([2]; Non responders grafts): 0/6
- Dermal HLA-DR Expression: Dense ([2]; Non responders grafts): 0/6
- Dermal HLA-DR Expression: Negative/Mild ([2]; Non responders grafts): 0/6
- IL-17 Expression: Dense ([2]; Non responders grafts): 0/6
- IL-17 Expression: Negative/Mild ([2]; Non responders grafts): 0/6
- CD4 Expression: Dense ([2]; Responders grafts): 0/6
- CD4 Expression: Negative/Mild ([2]; Responders grafts): 6/6
- CD8 Expression: Dense ([2]; Responders grafts): 0/6
- CD8 Expression: Negative/Mild ([2]; Responders grafts): 6/6
- Dermal HLA-DR Expression: Dense ([2]; Responders grafts): 0/6
- Dermal HLA-DR Expression: Negative/Mild ([2]; Responders grafts): 6/6
- IL-17 Expression: Dense ([2]; Responders grafts): 0/6
- IL-17 Expression: Negative/Mild ([2]; Responders grafts): 6/6
- Epidermal HLA-DR Expression: Negative (grafts/total) ([2]; in vivo): 5/6
- CD4 positive cells along the dermis: Dense [2, 5]: 0/10
- CD8 positive cells along the dermis: Dense [2, 5]: 0/10
- IL-17 positive cells along the dermis: Dense [2, 5]: 0/10
- Dermal HLA-DR Expression: Dense (grafts/total) ([2]; intense level of cell infiltrates of positive cells along the dermis): 0/6
- CD4 positive cells along the dermis: Mild [2, 6]: 2/6
- CD8 positive cells along the dermis: Mild [2, 6]: 1/6
- IL-17 positive cells along the dermis: Mild [2, 6]: 1/6
- Dermal HLA-DR Expression: Mild (grafts/total) ([2]; minor level of cell infiltrates of positive cells along the dermis): 2/6
- CD4 positive cells along the dermis: Negative ([2]; no staining): 4/6
- CD8 positive cells along the dermis: Negative ([2]; no staining): 5/6
- Dermal HLA-DR Expression: Negative (grafts/total) ([2]; no staining): 4/6
- IL-17 positive cells along the dermis: Negative ([2]; no staining): 5/6

SMILES: CS(=O)(=O)O.Oc1ccc(C2CNCCc3c2cc(O)c(O)c3Cl)cc1 (centres unmarked) [Fenoldopam mesylate, 6-chloro-2,3,4,5-tetrahydro-1-(4-hydroxyphenyl)-1H-3-benzazepine-7,8-diol, methanesulfonate]
- solubility ([3]; in propylene glycol): soluble
- solubility ([3]; in water, ethanol and methanol): sparingly soluble
